Publication PMC3794927, “A Novel Antidiabetic Drug, Fasiglifam/TAK-875, Acts as an Ago-Allosteric Modulator of FFAR1” (PLoS ONE, 2013)
Read-outs that look alike come from different tables or passages of the source.

Tests used:
hFFAR1 [1] = biological target: T1, hFFAR1 (Homo sapiens, UniProt O14842); test: Ca2+ mobilization assay (FLIPR) in CHO cells stably expressing hFFAR1; assay type: cell-based; conditions: for agonistic activity, Ca2+ influx: hFFAR1/CHO cells (clone #104)
T1 construct: expressed in transfected cells
Method: Cells were selected by culturing in nucleotide-free alpha-minimum essential medium (α-MEM; Invitrogen) supplemented with 10% dialyzed and heat-inactivated fetal bovine serum (FBS; Invitrogen), 100 IU/mL penicillin, and 100 µg/mL streptomycin (Invitrogen). […] The murine pancreatic β cell line MIN6 cells were kindly provided by Dr. Miyazaki. […] Cells were cultured in a humidified atmosphere containing 5% CO2/95% air at 37°C.
(§1) For stable CHO cell lines, cells were seeded in black-walled clear-bottomed 96-well cell culture plates (Costar) and incubated overnight in 5% CO2 at 37°C. Otherwise, HEK293T cells were transiently transfected with expression plasmids using Trans-IT (Mirus) or Lipofectamine 2000, followed by plating in poly-D-lysine-coated black clear 96-well plates (BD Falcon) and incubated for 2 days. These cells were then incubated at 37°C for 1 h in HEPES-buffered Hank’s balanced salt solution (pH 7.4) containing 2.5 mM probenecid, 1% FBS, and 4 µM fluo-3 AM (Dojindo). Following this, the cells were washed four times with the solution without fluo-3 AM. Intracellular Ca^2+ concentrations were measured before and after adding samples using FLIPR (Molecular Devices). Assays were performed in the absence of bovine serum albumin (BSA).

MIN6 cells [2] = test: Caspase 3/7 activity in MIN6 cells (lipotoxicity); conditions: 72-h exposure, palmitic acid 0.25–1 mM
Method: (§3) Caspase 3/7 activity in MIN6 cells was measured according to a previously described method (8). In brief, MIN6 cells were seeded at a density of 2 × 10^4 cells/well in a 96-well black clear plate (CORNING) and cultured overnight. After discarding the medium, 1% BSA, palmitic acid–BSA conjugate (0.25, 0.5, and 1 mM) or γ-LA–BSA conjugate (0.25, 0.5, and 1 mM) in combination with 0.1% DMSO or fasiglifam (0.1, 1, and 10 µM) were added to the plates and cultured for 72 h. After incubation, caspase 3/7 activity was measured using the Apo-one Homogeneous Caspase 3/7 assay (Promega) according to the manufacturers’ instructions. Fluorescent intensity was measured at excitation and emission wavelengths of 485 nm and 535 nm, respectively (Wallac 1420 ARVO SX Multilabel Counter; PerkinElmer).

N-STZ-1.5 rats = test: Oral glucose tolerance test in diabetic N-STZ-1.5 rats; assay type: in vivo, rat
Method: Blood samples were collected from the tail vein before drug administration (pre), before glucose load (time 0), and 10, 30, 60, and 120 min after the glucose load. Plasma glucose and FFA levels were measured using Autoanalyzer 7080 (Hitachi, Japan), and insulin levels were measured using the Rat Insulin ELISA Kit (Morinaga, Japan). All procedures were conducted according to the Experimental Animal Care and Use Committee of Takeda Pharmaceutical Company Limited.

[3] = system: FFAR1 Y91A and N244A mutants; test: Ca2+ influx assay, FFAR1 point mutants in transfected HEK293T cells; assay type: cell-based
Method: (§2) FLAG-tagged FFAR1 was constructed using a two-step procedure. Initially, untagged FFAR1-pcDNA3.1 was amplified using the forward primer ([…]) and the reverse primer ([…]) to insert a FLAG epitope at the N terminus of the receptor. Following this, the polymerase chain reaction (PCR) product was purified and ligated into a pcDNA3.1 vector. Mutations were made using the QuikChange Site-Directed Mutagenesis Kit (Stratagene) and verified by sequencing.
as §1, with “(BSA). EC50, 95% confidence interval and Emax values for each curve were calculated by data analysis using 4-parameter logistic equation in Prism 5 software (GraphPad Software).” for “(BSA).”

[4] = system: FFAR1 R183A and R258A mutants; test: as above; assay type: cell-based
Method: as §2
as §1, with “(BSA). EC50, 95% confidence interval and Emax values for each curve were calculated by data analysis using 4-parameter logistic equation in Prism 5 software (GraphPad Software).” for “(BSA).”

[5] = system: FFAR1 H137A and L186A mutants; test: as above; assay type: cell-based; conditions: for change of EC50 in mutants versus wild-type: range over fasiglifam and GW9508 and both mutants
Method: as §2
as §1, with “(BSA). EC50, 95% confidence interval and Emax values for each curve were calculated by data analysis using 4-parameter logistic equation in Prism 5 software (GraphPad Software).” for “(BSA).”

rat insulinoma cells = system: rat insulinoma cells; parameters: method as in PMID 21752941; conditions: prolonged exposure to fasiglifam alone; cited from earlier work
MIN6 cells [6] = test: Insulin secretion assay in MIN6 cells; assay type: cell-based, mouse; conditions: 16 mM glucose
Method: MIN6 cells were seeded at a density of 6 × 10^4 cells/well in 96-well plates (BD Falcon), and cells were cultured in the growth medium described above for 2 days before experiments. After discarding the medium, cells were preincubated for 2 h at 37°C with 200 µL of Krebs-Ringer bicarbonate–HEPES (KRBH) buffer (116 mmol/L NaCl, 4.7 mmol/L KCl, 1.17 mmol/L KH2PO4, 1.17 mmol/L MgSO4, 25 mmol/L NaHCO3, 2.52 mmol/L CaCl2, and 24 mmol/L HEPES) containing 0.2% BSA and 1 mmol/L glucose. After discarding the preincubation buffer, KRBH containing 0.2% BSA, 16 mmol/L glucose, and stimulators as shown was added and the plate was incubated for 2 h at 37°C. After incubation, supernatants from each well were collected and secreted insulin concentrations were measured using alphaLISA (PerkinElmer) according to the manufacturer’s instruction.

[7] = system: FFAR1-knockout mouse islets; test: Insulin secretion in FFAR1-knockout mouse islets; assay type: cell-based; conditions: 16 mM glucose
wild-type mouse islets = test: Insulin secretion in wild-type mouse islets; assay type: cell-based; conditions: 16 mM glucose
hFFAR1 [8] = biological target: T1, hFFAR1; test: Ca2+ influx in HEK293T cells transiently transfected with varying amounts of hFFAR1 plasmid; assay type: cell-based; conditions: 100 ng to 1 ng hFFAR1 plasmid, compared with γ-LA
Method: as §1, with “(BSA). EC50, 95% confidence interval and Emax values for each curve were calculated by data analysis using 4-parameter logistic equation in Prism 5 software (GraphPad Software).” for “(BSA).”
Supplementary file pone.0076280.s002.tif: Figure S2 Relative efficacy of fasiglifam is affected by FFAR1/GPR40 expression levels in transient HEK293T cells. Relative Ca^2+ influx activities of fasiglifam and γ-linolenic acid (γ-LA) were measured in HEK293T cells transiently transfected with 100 ng (A), 30 ng (B), 10 ng (C), 3 ng (D), and 1 ng (E) of hFFAR1 expression plasmids. Error bars indicate s.e.m. […]

mFFAR1 = biological target: T2, mFFAR1 (Mus musculus, UniProt Q76JU9); test: Ca2+ mobilization assay (FLIPR) in CHO cells stably expressing mFFAR1; assay type: cell-based
T2 construct: expressed in transfected cells
Method: To establish CHO cells (dhfr−) stably expressing hFFAR1 or mFFAR1, CHO/dhfr− (ATCC catalog # CRL-9096) cells were transfected with hFFAR1-pAKKO-111H or mFFAR1-pAKKO-111H plasmid using Lipofectamine 2000 (Invitrogen). Cells were selected by culturing in nucleotide-free alpha-minimum essential medium (α-MEM; Invitrogen) supplemented with 10% dialyzed and heat-inactivated fetal bovine serum (FBS; Invitrogen), 100 IU/mL penicillin, and 100 µg/mL streptomycin (Invitrogen). HEK293T (ATCC catalog # CRL-11268) cells were cultured in Dulbecco’s modified Eagle’s medium (DMEM, Invitrogen) supplemented with 10% heat-inactivated FBS, 100 IU/mL penicillin, and 100 µg/mL streptomycin. The murine pancreatic β cell line MIN6 cells were kindly provided by Dr. Miyazaki. MIN6 cells were grown in DMEM containing 10% heat-inactivated FBS, 100 IU/mL penicillin, 100 µg/mL streptomycin, and 55 µmol/L 2-mercaptoethanol (Invitrogen). Cells were cultured in a humidified atmosphere containing 5% CO2/95% air at 37°C.
For stable CHO cell lines, cells were seeded in black-walled clear-bottomed 96-well cell culture plates (Costar) and incubated overnight in 5% CO2 at 37°C. […] Intracellular Ca^2+ concentrations were measured before and after adding samples using FLIPR (Molecular Devices). […]

MIN6 cells [9] = conditions: mouse, 72 h, 1 mM
Method: as §3

T1 sequence (O14842 whole entry): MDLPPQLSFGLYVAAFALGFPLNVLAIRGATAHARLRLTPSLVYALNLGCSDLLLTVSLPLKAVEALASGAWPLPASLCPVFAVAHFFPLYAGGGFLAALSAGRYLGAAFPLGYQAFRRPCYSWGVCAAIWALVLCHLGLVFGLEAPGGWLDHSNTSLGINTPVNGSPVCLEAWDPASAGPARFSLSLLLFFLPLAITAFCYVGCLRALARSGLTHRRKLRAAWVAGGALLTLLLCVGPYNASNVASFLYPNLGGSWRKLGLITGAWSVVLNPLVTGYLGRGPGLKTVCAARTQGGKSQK
T2 sequence (Q76JU9 whole entry): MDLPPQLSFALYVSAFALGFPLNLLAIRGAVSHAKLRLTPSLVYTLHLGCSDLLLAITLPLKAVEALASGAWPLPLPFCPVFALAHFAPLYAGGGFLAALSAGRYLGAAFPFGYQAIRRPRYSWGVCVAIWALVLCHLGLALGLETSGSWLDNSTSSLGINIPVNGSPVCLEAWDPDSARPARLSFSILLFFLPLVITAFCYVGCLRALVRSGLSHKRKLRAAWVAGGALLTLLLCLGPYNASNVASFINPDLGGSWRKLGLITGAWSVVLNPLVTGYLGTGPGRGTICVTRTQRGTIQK

## CCCCCCCCCCCCCCCC(=O)O [palmitic acid]
hFFAR1 [1]
  agonistic activity, Ca2+ influx: partial activities
MIN6 cells [2]
  caspase 3/7 activity: increased caspase 3/7 activity in a dose-dependent manner

## Cc1cnc(C(=O)O)c[n+]1[O-] [acipimox]
N-STZ-1.5 rats; acipimox 30 mg/kg oral, N-STZ-1.5 rats, OGTT
  plasma FFA levels: rapid decrease
N-STZ-1.5 rats; acipimox alone 30 mg/kg, OGTT, N-STZ-1.5 rats
  glucose tolerance: improved glucose tolerance
N-STZ-1.5 rats; diabetic rats, acipimox
  plasma FFA level after reduction with acipimox: approximately 0.2 mEq/L

## Cc1cc(OCCCS(C)(=O)=O)cc(C)c1-c1cccc(COc2ccc3c(c2)OC[C@H]3CC(=O)O)c1.Cc1cc(OCCCS(C)(=O)=O)cc(C)c1-c1cccc(COc2ccc3c(c2)OC[C@H]3CC(=O)O)c1.O [fasiglifam, [(3S)-6-({2′,6′-dimethyl-4′-[3-(methylsulfonyl)propoxy]biphenyl-3-yl}methoxy)-2,3-dihydro-1-benzofuran-3-yl] acetic acid hemihydrate]
[3]
  effect of mutations on potency: more drastic
[4]
  Ca2+ influx response of mutants: almost unresponsive
[5]
  change of EC50 in mutants versus wild-type: 7.7- to 130 fold
hFFAR1 [1]
  agonistic activity, Ca2+ influx: higher potency than FFAs
hFFAR1 [1]; hFFAR1/CHO clone #2, increasing doses of γ-LA
  effect of simultaneous γ-LA on fasiglifam Ca2+ activity: remarkable potentiation
Rat insulinoma cells
  effect on apoptosis: no effect on apoptosis
MIN6 cells [6]; γ-LA 100 µM
  increase in the maximal response of fasiglifam (insulin secretion) by γ-LA: 1.5–2 fold
N-STZ-1.5 rats; fasiglifam 10 mg/kg + acipimox 30 mg/kg, OGTT
  insulinotropic action in acipimox-treated rats: significantly suppressed
N-STZ-1.5 rats; fasiglifam alone 10 mg/kg oral, at 0, 10, and 30 min of OGTT
  plasma insulin (insulinotropic effect) versus vehicle: significant insulinotropic effects
[7]
  insulinotropic effect in FFAR1-knockout islets: completely abolished
wild-type mouse islets
  effect of γ-LA on insulinotropic activity of fasiglifam: dramatic improvement
hFFAR1 [8]
  maximal response as amount of transfection plasmid decreased: dramatically decreased
mFFAR1
  Emax, Ca2+ mobilization: lower Emax than γ-LA

## CCC1=C(C)CN(C(=O)NCCc2ccc(S(=O)(=O)NC(=O)N[C@H]3CC[C@H](C)CC3)cc2)C1=O [glimepiride]
[7]
  insulinotropic effect in FFAR1-knockout islets: not affected

## CCCCC/C=C\C/C=C\C/C=C\CCCCC(=O)O [γ-LA, γ-linolenic acid]
[4]
  Ca2+ influx response of mutants: relatively less affected
[5]
  activity in mutants versus wild-type: remained almost unchanged
hFFAR1 [1]
  agonistic activity, Ca2+ influx: full agonistic activity
hFFAR1 [1]; hFFAR1/CHO clone #2, without fasiglifam, read-out: EC50 of γ-LA response (Ca2+ influx)
  EC50: 5.39 µM
MIN6 cells [6]; 0.2% BSA
  insulin secretion, compound alone: could not significantly potentiate insulin secretion
MIN6 cells [9]
  caspase 3/7 activity: significant enhancements of caspase 3/7 activity

## O=C(O)CCc1ccc(NCc2cccc(Oc3ccccc3)c2)cc1 [GW9508]
[3]
  effect of mutations on potency: more drastic
[4]
  Ca2+ influx response of mutants: almost completely unresponsive
[5]
  change of EC50 in mutants versus wild-type: 7.7- to 130 fold

## CCCCCCCCCCCCCC(=O)O [myristic acid]
hFFAR1 [1]
  agonistic activity, Ca2+ influx: partial activities
